According to US12427125B2 (priority 2020, dated 2025):
Where two headings read alike, the source gives them in different places.

How the values were obtained:
female CD-1 mice [1] = tested on: female CD-1 mice
[2] = tested on: adult patients infected by SARS-CoV-19 (COVID-19); conditions: oral DA 30, 60 or 100 mg/kg BID for up to ten days; paper example
female CD-1 mice [3] = conditions: for BALF Protein Concentration Mean / BALF Protein Conc. Mean / Total Neutrophil Count per Lavage, Mean: group mean
Protocol: The protocols obtained 30 or 18 female CD-1 mice (Charles River Lab) and monitored daily for body condition and health status during the 3-5 days acclimation period.
At time 0, the mice were weighed. LPS was prepared 1 mg LPS in 1 ml phosphate buffered saline (PBS) to get a final concentration of 1 mg/mL. Dosed 50 μl intratracheally to the mice at time 0. For the N=30 or 18 mice in an incubator, temperature was set to achieve a core temperature of 39° C. as measured by a calibrated thermometer inserted through the top lid of the incubator with the bulb at the level of the mouse cages in the incubator (set temperature knob at 36.7° C.). In addition, a rectal probe to confirmed core temperature in the mice (check right before sacrifice at 24 h post LPS). All mice were given access to food and water at all time. Treatment was initiated three days prior to LPS dosing.
For anesthesia and LPS Dosing, mice were placed in a bell jar, with isoflurane-soaked gauze separated from the mouse by a screen and keep within a scrubber (so the operator isn't anesthetized). Monitored respiratory rate of each mouse and when reduced by half (usually within 5 seconds of going down), then take the mouse out. Each mouse was suspended from incisors across a string tied between two screws on a Plexiglas board and kept at about 70 degrees. Using blunt forceps, grabbed the tongue and hold extended, then instill 50 μL of the LPS solution into the oropharynx using a PennCentury needle/areosolizer. […] Mouse kept in this position for 5-10 seconds to allow distribution of the LPS, then returned to their cage.
Bronchoalveolar lavage fluid (BALF) was collected using rounded tip scissors make a vertical incision though skin but not peritoneum from the lower abdomen up to the jaw. Using two forceps grabbed the edge of the skin and pull apart to get wide exposure to underlying peritoneum and thoracic connective tissue/muscle. Using forceps, picked up peritoneum near the mid abdomen and with rounded tip scissors made a small incision in the peritoneum (avoid cutting gut). Then, while holding the upper edge of the peritoneum, used the rounded tip scissors to extend the incision diagonally to the left upper and right upper quadrants. Moved the liver and intestines out of the way so you can see the underside of the diaphragms. Using the rounded tip scissors, nibbled up toward the diaphragm until you can see the lungs on the other side pull away. Repeated on the other side, being careful to not nick the lungs or else you will not be able to recover lavage. Using the rounded tip scissors, cut through the diaphragm where it inserts on the anterior chest wall. Using the rounded tip scissors and taking care to avoid nicking the lung by moving it away with blunt forceps, cut through the chest wall laterally on both sides until you reach the top of the thorax, then cut across the midline at the top to remove the anterior chest wall. Using forceps pull upward on the heart and cut through at its base to remove. Using the rounded tip scissors, remove the fat pads overlying the trachea taking care not to nick the trachea. Using the rounded tip scissors inserted next to the trachea from the top of the thoracic cavity and kept next to and parallel to the trachea, make a single cut, which allowed removal of the rest of the soft tissue from the trachea but pulling over to the other side and carefully trimming to avoid nicking the trachea. Using sharp forceps carefully placed posterior to the trachea pull suture behind the trachea about 4-5 mm below the cricoid and made a very loose surgical knot (two loops around). Using ophthalmic scissors, very carefully made a cut through the anterior half of the trachea just below the cricoid. Inserted a short blunt needle into tracheal so the tip extended about 5-6 mm below the cricoid and tied a suture tightly with a second knot.

CD-1 mice = conditions: for Tolerability: mouse, in vivo

Question: Which “Mice found dead on Day 1 (within 24 h after LPS instillation)” value (female CD-1 mice [1]; mouse, in vivo) does the source give for `CC(=O)[O-].CC[N+](CC)(CC(=O)Nc1c(C)cccc1C)Cc1ccccc1` [DA, Denatonium acetate] here?
Answer: The value was “one”.

Question: What about the Tolerability (female CD-1 mice [1]; mouse, in vivo, ip, 3 mg/kg) of the same molecule?
Answer: The Tolerability was “well-tolerated”.

Question: What about the Tolerability (female CD-1 mice [1]; mouse, in vivo, po, 92.4 mg/kg) of the same molecule?
Answer: Its Tolerability is “well-tolerated”.

Question: And the “Other adverse clinical observations” value (female CD-1 mice [1]; second study, during 3 days of test article administration)?
Answer: The value was “No other adverse clinical observations were noted”.

Question: What about the “Decrease in adult respiratory distress syndrome (ARDS), including chronic pulmonary function, diffusion capacity and lung compliance” value [2] of the same molecule?
Answer: Its value is ≥ 20%.

Question: And the Decrease in mortality [2]?
Answer: The Decrease in mortality was ~40%.

Question: What about the Patient tolerance [2] of the same molecule?
Answer: The Patient tolerance was “adequate patient tolerance”.

Question: What about the “BALF Protein Concentration Mean” value (female CD-1 mice [3]; first study, DA 3 mg/kg IV QD) of the same molecule?
Answer: The value was 0.638 mg/mL.

Question: And the “BALF Protein Concentration Mean” value (female CD-1 mice [3]; first study, DA 92.4 mg/kg PO BID)?
Answer: Its value is 0.428 mg/mL.

Question: What about the “Effect on BALF protein concentration, in words” value (female CD-1 mice [3]; first study, PO 92.4 mg/kg BID compared with iv 3 mg/kg QD, Table 3, FIG. 1) of the same molecule?
Answer: Its value is “Only oral administration was effective”.

Question: And the “BALF Protein Conc. Mean” value (female CD-1 mice [3]; second study, DA 3 mg/kg IP QD)?
Answer: Its value is 0.727 mg/mL.

Question: And the “Total Neutrophil Count per Lavage, Mean” value (female CD-1 mice [3]; second study, DA 3 mg/kg IP)?
Answer: The value was 610,900.

Question: What about the “BALF Protein Conc. Mean” value (female CD-1 mice [3]; second study, DA 92.4 mg/kg PO BID) of the same molecule?
Answer: Its value is 0.986 mg/mL.

Question: And the “Total Neutrophil Count per Lavage, Mean” value (female CD-1 mice [3]; second study, DA 92.4 mg/kg PO)?
Answer: The value was 535,080.

Question: And the “Effect on BALF total neutrophil count, in words” value (female CD-1 mice [3]; second study, PO 92.4 mg/kg compared with ip 3 mg/kg, Table 5, FIG. 2)?
Answer: The value was “Only oral administration was effective”.

Question: What about the “Changes in BALF protein concentrations, in words” value (female CD-1 mice [3]; second study, oral and IP dosing, Table 4) of the same molecule?
Answer: Its value is “nominal (but non-significant) changes”.

Question: What about the “Other adverse clinical observations” value (CD-1 mice; first study, during 3 days of test article administration) of the same molecule?
Answer: The value was “No other adverse clinical observations were noted”.

Question: And the Tolerability (CD-1 mice; iv, 3 mg/kg)?
Answer: Its Tolerability is “well-tolerated”.

Question: And the Tolerability (CD-1 mice; po, 92.4 mg/kg)?
Answer: The Tolerability was “well-tolerated”.
